# Source: patent US20250236530A1, “ACCELERATED TOOTH REMINERALIZATION TECHNOLOGY” (Creighton University, priority 2022, published 2025)
# Like-named read-outs stand apart in the source and are kept apart here.
# What was measured:
# [1] = for percent of salt dissolved in first 3 seconds: room temperature, FIG. 5; for initial conductivity reading at 3 seconds: first reading 3 seconds; for percent of NaF dissolved in the first 3 seconds: from conductivity; for 3 sec Dissolution: Table 4, 3 sec; for 200 sec Dissolution: Table 4, 200 sec; for 400 sec Dissolution: Table 4, 400 sec; for 800 sec Dissolution: Table 4, 800 sec
# Method: Such a test is a standard test that is well understood in the scientific community. In this experiment, at room temperature, 35 mg of commercially available solid cubic sodium fluoride was added to a beaker. A conductivity probe was placed into the beaker. 25 mL of ultrapure water was added to the beaker, instantaneously submerging the conductivity probe. Conductivity data can be collected every 3 seconds on the probe.
# This is tested by adding to a beaker 56 mg of the given salt to be tested. To this is added a conductivity probe. As the salt is added, the solution is stirred.
# The dissolution rate of NaF crystals correlates to the conductivity of NaF in solution. That is to say, as salt dissolves in water, the conductivity of the salt solution increases. […] Conductivity is utilized to test the rate of dissolution. The conductivity of ultrapure water is approximately […] when no ions are present. The first reading on the conductivity meter can be made 3 seconds after the experiment begins.
# [2] = Surface area (BET method) normalized to mass; assay type: physicochemical
# Text: Further characterization of the HSA NaF crystals compared to the solid cubic commercially available crystals of sodium fluoride examined the surface area (BET method) normalized to the mass of the crystals. […] Use of either of the Hall density of the surface area normalized to mass allows for a quantitative mechanism to differentiate the crystal formation.
# [3] = Hall density (ASTM Standard B212-99)
compound,measurement,setting,value
[F-].[Na+] [sodium fluoride],peak conductivity of sodium fluoride solution,[1]; 35 mg in 25 mL ultrapure water,"approximately 3,000 μS/cm"
"[F-].[Na+] [commercial NaF, sodium fluoride]",surface area to mass ratio,[2]; listed as commercial crystals,0.12±0.02 m^2/g
same,Hall density,[3]; listed as Commercial solid cubic crystals of sodium fluoride,0.86 ± 0.03 g/mL
same,percent of salt dissolved in first 3 seconds,"[1]; 35 mg in 25 mL ultrapure water, listed as commercially available solid cubic sodium fluoride",approximately 33%
same,conductivity after all of the salt dissolved,[1]; FIG. 7A,"2,605 μS/cm"
same,time before all the NaF dissolved,[1]; FIG. 7A,About 500 seconds
same,initial conductivity reading at 3 seconds,[1]; FIG. 7A,"1,127 μS/cm"
same,percent of NaF dissolved in the first 3 seconds,[1]; FIG. 7A,~43%
same,3 sec Dissolution,[1]; listed as Ordinary,"~1,000"
same,200 sec Dissolution,[1]; listed as Ordinary,"~1,175"
same,400 sec Dissolution,[1]; listed as Ordinary,"~1,500"
same,800 sec Dissolution,[1]; listed as Ordinary,"~2,500"
same,time for ordinary crystal to reach the concentration of HSA crystal's virtual maximum release,[1]; dissolution in water,more than ten minutes
[F-].[Na+] [crystals made from precipitation into 90% ethanol] [sodium fluoride],percent of NaF dissolved in the first 3 seconds,[1]; FIG. 7A,60%
"[F-].[Na+] [HSA NaF crystals, sodium fluoride]",surface area to mass ratio,[2]; listed as hopper crystals,0.22±0.04 m^2/g
same,Hall density,[3]; listed as HSA NaF hopper crystals,0.68 ± 0.04 g/mL
same,percent of salt dissolved in first 3 seconds,"[1]; 35 mg in 25 mL ultrapure water, listed as HSA crystal NaF",approximately 90%
same,3 sec Dissolution,[1]; listed as High Surface Area,"~2,600"
same,200 sec Dissolution,[1]; listed as High Surface Area,"~2,625"
same,400 sec Dissolution,[1]; listed as High Surface Area,"~2,700"
same,800 sec Dissolution,[1]; listed as High Surface Area,"~2,750"
same,rate of dissolution in aqueous environment compared with commercial cubic crystals,[1]; conductivity as a function of time,greater rate than commercially available cubic crystals
same,time to reach virtual maximum release,[1]; dissolution in water,3 s
"[F-].[Na+] [85% ethanol formulation, sodium fluoride]",initial conductivity reading at 3 seconds,[1]; FIG. 7A,"2,068 μS/cm"
same,percent of NaF dissolved in the first 3 seconds,[1]; FIG. 7A,approximately 79%
